# Data published in publication PMC9259545, “Impact of poly-arginine peptides R18D and R18 on alteplase and tenecteplase thrombolysis in vitro, and neuroprotective stability to proteolysis” (Journal of Thrombosis and Thrombolysis, 2022).
# Non-standard residues stand in square brackets, D forms with d. Residues, ends and D or L forms follow the SMILES beside them.
# Columns and labels:
# trypsin (TrypLE Express) = trypsin (TrypLE Express) (Fusarium oxysporum, UniProt P35049)
# Procedure: Rat primary cortical cultures were established from embryonic day 18–19 Sprague–Dawley rats (Animal Resources Centre, WA, Australia). Briefly, cortical tissue was dissociated in 2 mL Hanks balanced salt solution (HBBS; Life Technologies, Australia) supplemented with 1.3 mM L-cysteine, 10 U/mL papain (Sigma-Aldrich, Australia) and 50 U/mL DNase (Sigma-Aldrich) by trituration with a fire-polished pipette. Dissociated neurons were transferred to a 15-mL tube containing 13 mL of cold Dulbecco’s modified Eagle’s medium (DMEM; Life Technologies)/10% horse serum (Life Technologies) and centrifuged for 4 min at 300×g. Neurons were gently resuspended in 1.5 mL of cold Neurobasal (NB; Life Technologies)/2% B27 supplement (B27; Life Technologies) and the neuronal cell concentration adjusted to 50,000 neurons/70 μL and 70 μL inoculated into each well of a 96-well microtiter plate (Nunc, USA) pre-treated wells. Pre-treated wells were coated with 50 μL of poly-D-lysine (50 μg/mL; 70–150 K; Sigma-Aldrich) for 2–3 h at room temperature before being replaced with 50 μL of NB/B27, 4% fetal bovine serum (Life Technologies), 1% horse serum, 62.5 μM glutamic acid, 25 μM 2-mercaptoethanol, 30 μg/mL penicillin and 50 μg/mL streptomycin and placed in a CO2 incubator (5% CO2, 95% air balance, 98% humidity, 37 °C) prior to seeding with neurons. Neuronal cultures were maintained in CO2 incubator. On day in vitro four, 60 µL fresh NB/B27 containing the mitotic inhibitor cytosine arabinofuranoside (final concentration 0.15 μM; Sigma-Aldrich) was added and neuronal culture were used on day in vitro 11 to 13.
# As an alternative to trypsin, TrypLE Express (Thermo Fischer Scientific, Australia) a synthetic serine protease with trypsin-like activity was used. […] Hereafter, TrypLE Express is referred to as trypsin.
# Trypsin solution was added to an equal volume of MEM/2% B27 (T:MEM/B27). […] Following the incubation, 50 µL of the T:MEM/B27 or HBSS:MEM/B27 peptide solution was used to treat neuronal culture as described below for the glutamic acid excitotoxicity model. […]
# plasmin = conditions: cited from earlier work
# Source text: Given the potential future application of the R18D, R18 and NA-1 peptides as ischaemic stroke neurotherapeutics, it is important to establish if they interfere with current and future standard of care treatments, namely alteplase (tPA; recombinant tissue plasminogen activator) and tenecteplase (TNK; a modified version of tPA) thrombolysis, which are routinely administered prior to thrombectomy. […] NA-1 is also degraded by plasmin [8]. Together, these findings confirm that peptides synthesised with D-enantiomer amino acids such as R18D, unlike peptides synthesised with L-enantiomer amino acids are highly resistant to proteolytic degradation and are likely to retain their neuroprotective efficacy ...
# TNK = target: T1, TNK (Homo sapiens, UniProt P00750, H332A/K331A/N152Q/R333A/R334A/T138N); test: Neuroprotective proteolytic stability after pre-incubation with TNK (glutamic acid excitotoxicity model, MTS); type: in vitro ADME; conditions: 1 or 2 h or overnight (22-24 h)
# T1 construct: purchased Boehringer Ingelheim 50 mg vial
# Procedure: Neuronal cultures were maintained in CO2 incubator.
# tPA (1000 µg/mL) or TNK (5000 µg/mL) resuspended in water (Baxter) were used to prepare 10 µg/mL (170 nM; note this is 34 times the concentration used in thrombolysis assay) stocks in MEM/2% B27 supplement (MEM/B27).
# All data are presented as mean ± standard deviation (SD).
# tPA = target: T2, tPA (Homo sapiens, UniProt P00750); test: Halo clot thrombolysis assay, tPA thrombolysis of whole blood clots; type: biochemical; conditions: tPA 5 nM, 27.5% human plasma
# T2 construct: purchased Boehringer Ingelheim, Germany 10 mg vial
# Procedure: We utilised a high throughput 96-well plate thrombolysis assay (“halo clot assay”) based on the procedure developed by Bonnard et al.. To reduce assay components the halo thrombus formation procedure was modified by replacing the original thrombotic mixture consisting of recombinant tissue factor and synthetic phospholipids reconstituted in 30 mM calcium, with thrombin, and reducing the pro-thrombotic volume (i.e., thrombin) from 5 to 3 µL and blood volume from 25 to 12 µL. Another modification to simplify clot formation consisted of adding the thrombin (3 µL; 500 nM in saline) to one side of the well and 12 µL of blood to the opposite side of well, before using a heat stretched Pasteur pipette with sealed end to mix the two liquids together using 4 to 5 circular motions around the edge of the well (halo clot). The original methodology involved adding the 5 μL of the clotting mixture to the edge of the well, and then using a micropipette to slowly release the 25 μL of blood to the edge of the well while at the same time maintaining a circular motion. Plates were incubated in a humidified 37 °C incubator for 1 h before use in the thrombolysis assay.
# The thrombolysis assay involved adding 30 µL of Tris buffer (50 mM Tris–HCl, 100 mM NaCl, pH 7.4) with or without peptide followed by 55 µL Tris buffer containing tPA or TNK (5 nM final concentration) and 50% human plasma (final plasma concentration during thrombolysis 27.5%). The final concentration of peptide during thrombolysis ranged from 0.25 to 16 µM (note: an intravenous dose of R18D at 350 nmol/kg, which is likely to be neuroprotective achieves a Cmax of 0.7–0.9 µM in healthy male and female rats; unpublished observation). […] Following the addition of tPA or TNK into the wells, clot lysis was monitored over a 1-h period at 37 °C using a plate reader (Cytation5, BioTek, USA) by measuring absorbance at 510 nm every 1 min immediately after orbital shaking (205 rpm for 5 s). Controls consisted of wells with no thrombin (100% clot lysis; L100%) and wells with no tPA or TNK (0% clot lysis; L0%). At the 1-h time point, the percentage of thrombolysis (%T) in tPA or TNK treated samples (LTX) was calculated by transforming absorbance values based on the formula: % T = (LTX) − (L0%)/(L100%) − (L0%) × 100. In addition, during the 1-h period of clot lysis lag time and maximal activity (also known as maximum velocity or Vmax) of the thrombolysis reaction were calculated. The lag time is defined as the time interval between the first absorbance reading (time = 0) and the line of maximum slope of the thrombolysis reaction. The maximal activity is calculated from the maximum slope over the time course of the assay and reflects the capacity of an enzyme to catalyse a reaction (i.e., thrombolysis), with higher values representing higher catalytic activity (i.e., tPA/TNK induced plasmin thrombolysis).
# For each thrombolysis assay, replicates for control wells (L0% and L100%) and tPA or TNK only treated wells consisted of n = 4–8. Replicates for tPA or TNK and peptide treated wells consisted of n = 4. For data analysis and graphical representations of the results, data from three independent thrombolytic assays were pooled. Studies consisted of R18D, R18 and NA-1 examined at the 0.5, 1, 2, 4, 8 or 16 µM concentrations performed concurrently on the same 96-well plate, in respective order. In addition, since R18D is known to be resistant to plasmin degradation and appeared to have the most impact on tPA or TNK thrombolysis, a separate set of three independent assays were performed for this peptide alone at concentrations of 0.25, 0.5, 1, 2, 4, 8 or 16 µM. Furthermore, the second dose study with R18D provided the opportunity to include a lower concentration (0.25 µM) of the peptide and to provide comparative data when only one peptide was examined in the thrombolysis assay per 96-well plate as opposed to examining the three peptides concurrently on the same plate. […]
# [1] = separate dose study, R18D alone, 0.25-16 µM
# T2 sequence (P00750 36-562): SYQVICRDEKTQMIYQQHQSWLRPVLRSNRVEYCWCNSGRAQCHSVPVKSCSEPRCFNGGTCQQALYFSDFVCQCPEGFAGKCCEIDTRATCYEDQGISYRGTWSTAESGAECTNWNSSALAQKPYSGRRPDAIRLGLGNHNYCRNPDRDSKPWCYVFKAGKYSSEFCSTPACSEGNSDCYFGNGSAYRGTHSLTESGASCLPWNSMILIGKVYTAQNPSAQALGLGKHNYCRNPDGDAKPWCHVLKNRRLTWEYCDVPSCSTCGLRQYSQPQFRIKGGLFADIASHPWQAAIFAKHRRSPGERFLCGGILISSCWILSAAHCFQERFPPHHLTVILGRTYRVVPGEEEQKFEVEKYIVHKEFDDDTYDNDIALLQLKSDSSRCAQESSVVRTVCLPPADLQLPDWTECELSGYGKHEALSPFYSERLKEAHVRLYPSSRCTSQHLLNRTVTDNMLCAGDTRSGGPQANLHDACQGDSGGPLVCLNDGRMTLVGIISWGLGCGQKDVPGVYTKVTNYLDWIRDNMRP
# trypsin (TrypLE Express), sequence (P35049 25-248): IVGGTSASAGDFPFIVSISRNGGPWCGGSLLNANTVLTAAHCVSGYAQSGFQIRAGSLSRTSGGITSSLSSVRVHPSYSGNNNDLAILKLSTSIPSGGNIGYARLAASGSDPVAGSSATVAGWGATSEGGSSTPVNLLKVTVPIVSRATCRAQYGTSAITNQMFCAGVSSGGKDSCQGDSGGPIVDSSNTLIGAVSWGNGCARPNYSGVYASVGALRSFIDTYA
# T1 sequence (P00750 36-562 T138N/N152Q/K331A/H332A/R333A/R334A): as the sequence (P00750 36-562) above, with T103N, N117Q, K296A, H297A, R298A, R299A counted along it
compound,measurement,setting,value
N=C(N)NCCC[C@@H](N)C(=O)N[C@H](CCCNC(=N)N)C(=O)N[C@H](CCCNC(=N)N)C(=O)N[C@H](CCCNC(=N)N)C(=O)N[C@H](CCCNC(=N)N)C(=O)N[C@H](CCCNC(=N)N)C(=O)N[C@H](CCCNC(=N)N)C(=O)N[C@H](CCCNC(=N)N)C(=O)N[C@H](CCCNC(=N)N)C(=O)N[C@H](CCCNC(=N)N)C(=O)N[C@H](CCCNC(=N)N)C(=O)N[C@H](CCCNC(=N)N)C(=O)N[C@H](CCCNC(=N)N)C(=O)N[C@H](CCCNC(=N)N)C(=O)N[C@H](CCCNC(=N)N)C(=O)N[C@H](CCCNC(=N)N)C(=O)N[C@H](CCCNC(=N)N)C(=O)N[C@H](CCCNC(=N)N)C(=O)O [R18D] (H-[dR][dR][dR][dR][dR][dR][dR][dR][dR][dR][dR][dR][dR][dR][dR][dR][dR][dR]-OH),Resistance to degradation by trypsin,trypsin (TrypLE Express),resistant to degradation by trypsin
same,High-level neuroprotective efficacy after incubation with trypsin,"trypsin (TrypLE Express); peptide 2 µM in 50% TrypLE Express : MEM/B27, 1 or 2 h or overnight (22-24 h), 37 °C CO2 incubator, then rat cortical neurons, glutamic acid 100 µM 5 min, MTS viability at 20-24 h, N = 4-8",displayed a high-level neuroprotective efficacy
same,Neuroprotective properties in the glutamic acid excitotoxicity injury model when pre-incubated with plasmin,plasmin,retains its neuroprotective properties
same,Sensitivity to proteolytic degradation by plasmin,plasmin,not
same,Resistance to degradation by TNK,"TNK; inferred from retained neuroprotection, peptide 2 µM, TNK 170 nM",resistant to degradation
same,Neuroprotective efficacy after incubation with TNK,"TNK; peptide 2 µM in MEM/B27 with TNK 10 µg/mL (170 nM), 37 °C CO2 incubator, then rat cortical neurons, glutamic acid 100 µM 5 min, MTS viability at 20-24 h, N = 4-8",a similar and a high level of neuroprotective efficacy
same,Effect on tPA thrombolysis maximal activity vs tPA control,"tPA; concurrent study, 0.5-16 µM peptide",did not significantly impact tPA thrombolysis maximal activity
same,Increase in tPA lag time,"tPA; peptide 16 µM, concurrent study, 37 °C",5.85 min
same,Effect on tPA lag time vs tPA control,tPA; [1],did not significantly affect tPA lag time at any concentration
same,Effect on tPA thrombolysis maximal activity vs tPA control,tPA; [1],did not significantly impact tPA thrombolysis maximal activity at any concentration
same,Effect on percentage tPA thrombolysis at 1 h vs tPA control,"tPA; separate dose study, R18D alone, 0.25-16 µM, 37 °C, three independent assays",did not inhibit tPA thrombolysis
same,Effect on percentage tPA thrombolysis at 1 h vs tPA control,"tPA; three peptides concurrently on the same plate, 0.5-16 µM peptide, Tris pH 7.4, 37 °C, absorbance 510 nm, three independent assays pooled, n = 4, Dunnett's test",did not significantly inhibit thrombolysis
